IC50 and EC50 data for eight compounds are collected here from patent US6653290B2, “Tumor proliferation inhibitors” (Bristol-Myers Squibb Company, priority 2000, dated 2003).

Assay [1] deals with murine P388 cell line. The experiment in a line: Cell-based cytotoxicity (XTT proliferation inhibition) against murine P388 cell line. Particulars: Mus musculus, P388 cells, 72 h incubation, absorbance at 450 nm, read-out: IC50 (drug concentration required to inhibit cell proliferation to 50% of untreated control cells). The method, then: The proliferation inhibition activity against murine P388 cell line was measured as follows. Evaluation of a soluble tetrazolium/formazan assay for cell growth and drug sensitivity in culture, using human and other tumor cell lines, was done according to the procedure described in Cancer Res. 1988, 48, 4827-4833. Cells were plated at 4000 cells/well in 96 well microtiter plates and 24 h later drugs were added and serially diluted. The cells were incubated at 37° C. for 72 h, at which time a tetrazolium dye, XTT, containing phenazine methosulfate was added. A dehydrogenase enzyme in live cells reduced the XTT to a form that absorbs light at 450 nm, which could be quantitated spectrophotometrically. The greater the absorbance the greater the number of live cells. The results are expressed as an IC50, which is the drug concentration required to inhibit cell proliferation (i.e., absorbance at 450 nm) to 50% of that of untreated control cells.

In assay [2] the target is T1, purified human topoisomerase I (Homo sapiens, UniProt P11387).
T1 construct: purchased Topogen
T1 sequence (P11387 1-765): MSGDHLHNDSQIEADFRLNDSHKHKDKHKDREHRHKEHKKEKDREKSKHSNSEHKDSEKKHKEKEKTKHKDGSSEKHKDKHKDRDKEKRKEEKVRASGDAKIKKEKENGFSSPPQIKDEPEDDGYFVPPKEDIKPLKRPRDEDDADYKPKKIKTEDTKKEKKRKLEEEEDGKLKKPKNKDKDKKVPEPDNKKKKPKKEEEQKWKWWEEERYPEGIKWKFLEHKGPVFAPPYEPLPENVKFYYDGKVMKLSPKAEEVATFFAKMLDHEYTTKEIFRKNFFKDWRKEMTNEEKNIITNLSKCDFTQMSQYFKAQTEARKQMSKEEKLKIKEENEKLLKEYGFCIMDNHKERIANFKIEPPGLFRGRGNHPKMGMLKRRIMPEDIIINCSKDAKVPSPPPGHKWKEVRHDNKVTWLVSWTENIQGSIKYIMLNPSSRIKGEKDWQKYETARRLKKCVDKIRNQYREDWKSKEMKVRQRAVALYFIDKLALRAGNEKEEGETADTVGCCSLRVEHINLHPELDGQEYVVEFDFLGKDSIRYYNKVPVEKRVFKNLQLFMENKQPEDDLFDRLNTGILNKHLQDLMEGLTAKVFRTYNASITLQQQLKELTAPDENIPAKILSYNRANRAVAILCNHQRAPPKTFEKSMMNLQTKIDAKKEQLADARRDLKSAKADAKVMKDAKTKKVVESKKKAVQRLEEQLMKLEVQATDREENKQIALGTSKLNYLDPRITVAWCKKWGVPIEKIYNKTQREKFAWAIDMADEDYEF
The experiment in a line: Topoisomerase I activity (in vitro): compound-induced, topoisomerase I-mediated single strand breaks in PM2 DNA. Format: biochemical. Particulars: purified human topoisomerase I (Topogen), 30 minutes at 37° C., read-out: EC50 (median effective concentration for inducing topoisomerase I-mediated single strand breaks in DNA). The method, then: Topoisomerase I activity was measured as described below. The procedure for assaying compound-induced, topoisomerase I-mediated single strand breaks in DNA was essentially that described by Hsiang, et al., (J. Biol. Chem. 1985, 260,14873-14878). Samples dissolved in 100% DMSO as either 10 μM or 10 mg/ml solutions, unless otherwise stated, were diluted in Tris-EDTA buffer. Marine bacteriophage PM2 DNA (Boehringer Mannheim) was also diluted in Tris-EDTA buffer to a concentration of 0.02 μg/μl. Different dilutions of compound being evaluated were mixed with diluted DNA and this mixture was added to 1000 unit (one unit of enzyme activity is defined as the amount capable of relaxing 100 ng of supercoiled DNA in approximately 30 minutes at 37° C.) aliquots of purified human topoisomerase I (Topogen) in 2×reaction buffer to start the reaction. The compound—DNA—enzyme mixture was incubated for 30 minutes at 37° C. before stopping the reaction with warm stop buffer containing sodium dodecyl sulfate and proteinase K (Sigma). These mixtures were allowed to incubate at 37° C. for another 10 minutes, at which time the mixtures were removed from the waterbath and extracted with a 24:1 mixture of chloroform/isoamyl alcohol. Following centrifugation, aliquots of the aqueous phases were placed in wells of a 0.9% agarose (SeaKem) gel in Tris-borate buffer containing 0.5 μg/ml of ethidium bromide and subjected to electrophoresis for 15 hours to separate the different topological isomers and nicked and broken DNAs. After destaining the gel in water, the ethidium bromide stained DNA reaction products were visualized by exposing the gel to UV irradiation. Negatives of photographs of the irradiated gels were scanned with a densitometer and areas under the peaks were calculated in order to obtain percent single strand DNA break formation for each sample. A median effective concentration (EC50) was obtained for each compound by interpolation between points of the resulting dose-effect curve which defines the potency of the compound for its effect in inducing topoisomerase I-mediated single strand breaks in DNA. The topoisomerase I activity for selected compounds of the present invention is shown below in Table I.

Turning to `O=C1NC(=O)c2c1c1c3cc(F)c(F)cc3[nH]c1c1c2c2cc(F)c(F)cc2n1[C@@H]1OC(CO)(CO)C[C@H](O)[C@H]1O` [Example 1, 2,3,9, 10-Tetrafluoro-12-[5-C-(hydroxymethyl)-4-deoxy-β-D-glucopyranosyl]-indolo[2,3-a]pyrrolo[3,4-c]carbazole-5,7-dione], the IC50 in assay [1] is 35 nM. In addition, in assay [2], the EC50 was 40 nM.

Regarding `CO[C@@]1(C)C[C@H](O)[C@@H](O)[C@H](n2c3cc(F)c(F)cc3c3c4c(c5c6cc(F)c(F)cc6[nH]c5c32)C(=O)NC4=O)O1` [Example 6, 2 , 3,9, 10-Tetrafluoro-12-(4,6-dideoxy-5-methoxy-β-D-glucopyranosyl) -6,7, 12, 13-tetrahydro(5H)indolo[2,3-a]pyrrolo[3,4-c]carbazole-5,7-dione], in assay [1], the IC50 was determined as 50 nM. Moreover, in assay [2], the EC50 was found to be 70 nM. Regarding `CO[C@]1(CO)O[C@@H](n2c3cc(F)c(F)cc3c3c4c(c5c6cc(F)c(F)cc6[nH]c5c32)C(=O)NC4=O)[C@H](O)[C@@H](O)[C@@H]1O` [Example 7, 2,3,9, 10-Tetrafluoro-12-(5-methoxy-β-D-glucopyranosyl)-6,7, 12, 13-tetrahydro(5H)indolo[2,3-a]pyrrolo[3,4-c]carbazole-5,7-dione], the IC50 in assay [1] came out at 250 nM. Besides, in assay [2], the EC50 stood at 270 nM. `CO[C@@]1(CO)C[C@H](O)[C@@H](O)[C@H](n2c3cc(F)c(F)cc3c3c4c(c5c6cc(F)c(F)cc6[nH]c5c32)C(=O)NC4=O)O1` [Example 8, 2,3,9, 10-Tetrafluoro-12-(4-deoxy-5-methoxy-β-D-glucopyranosyl) -6,7, 12, 13-tetrahydro(5H)indolo[2,3-a]pyrrolo[3,4-c]carbazole-5,7-dione]: the IC50 in assay [1] was found to be 35 nM. In addition, the EC50 in assay [2] amounted to 50 nM.

In the case of `CO[C@@]1(C)C[C@H](O)[C@@H](O)[C@H](n2c3ccc(F)cc3c3c4c(c5c6cc(F)ccc6[nH]c5c32)C(=O)NC4=O)O1` [Example 9, 3,9-Difluoro-12-(4,6-dideoxy-5-methoxy-β-D-glucopyranosyl)-6,7, 12, 13-tetrahydro(5H)indolo[2,3-a]pyrrolo[3,4-c]carbazole-5,7-dione], the IC50 in assay [1] came out at 7 nM. On to `CCOC1(C)CC(O)C(O)C(n2c3ccc(F)cc3c3c4c(c5c6cc(F)ccc6[nH]c5c32)C(=O)NC4=O)O1` [Example 10, 3,9-Difluoro-12-(4,6-dideoxy-5-ethoxy-6-D-glucopyranosyl)-6,7, 12, 13-tetrahydro(5H)indolo[2,3-a]pyrrolo[3,4-c]carbazole-5,7-dione], for which the IC50 in assay [1] was found to be 55 nM. Regarding `CC(C)OC1(C)CC(O)C(O)C(n2c3ccc(F)cc3c3c4c(c5c6cc(F)ccc6[nH]c5c32)C(=O)NC4=O)O1` [Example 11, 3,9-Difluoro-12-(4,6-dideoxy-5-isopropoxy-δ-D-glucopyranosyl)-6,7, 12, 13-tetrahydro(5H)indolo[2,3-a]pyrrolo[3,4-c]carbazole-5,7-dione], the IC50 in assay [1] was 200 nM. Still for that read-out and setting: then `COC1(C)CC(O)C(O)C(n2c3cc(F)c(F)cc3c3c4c(c5c6cc(F)c(F)cc6sc5c32)C(=O)NC4=O)O1` [Example 12, 2,3,9, 10-Tetrafluoro-12-(4,6-dideoxy-5-methoxy-δ-D-glucopyranosyl)-6,7, 12, 13-tetrahydro(5H)benzo[b]thieno[2,3-a]pyrrolo[3,4-c]carbazole-5,7-dione], with 69 nM.
